Measurements reported in article PMC12488629, “Insecticidal activity of monoamide compounds from Humulus scandens against Spodoptera frugiperda” (Frontiers in Plant Science, 2025).
In brackets after ≈: the same amount, converted by molar mass.

How the values were obtained:
[1] = tested on: 4th instar S. frugiperda larvae; assay: Contact toxicity of compounds, immersion method; type: in vivo, Spodoptera frugiperda; conditions: for Insecticidal activity, contact toxicity (in words): 200 µg/mL; for LC50: Spodoptera frugiperda, Poisoning activity (contact toxicity, immersion), 72 hours, 4th instar larvae
Protocol: The contact toxicity of the compounds against S. frugiperda was determined via the immersion method ([Li et al., 2023]). The compounds were prepared in solutions with a concentration of 200 μg/mL using acetone as the solvent. Uniformly sized 4th instar S. frugiperda larvae were selected and immersed in the solutions for 3–4 seconds. Each treatment included 10 Petri dishes, with one larva per dish, and the experiment was repeated three times. Acetone was used as the solvent control, and a blank control was also used. The number of dead insects was recorded at 24, 48, and 72 hours, and the corrected mortality rate was calculated.
(§1) Mortality(%)=(Mortality of treatment group-Mortality of control group)/(1-Mortality of control group)×100%
The compound concentrations were prepared as 50, 100, 200, 400, and 800 μg/mL, with the remaining procedures following those in section 2.6.2. The number of dead insects was recorded after 72 hours. The experimental data was processed using Microsoft Excel and SPSS 20.0 software, converting the inhibition rates into corresponding probability values to obtain the toxicity regression equation and calculate the LC50 value.

AchE from S. frugiperda = AchE from S. frugiperda (Spodoptera frugiperda, UniProt A0A9R0CUI4); assay: Kinetic study of compound inhibition on AchE; type: biochemical; conditions: for Inhibition type on AchE: Lineweaver-Burk double reciprocal plots; for Reversibility of AchE inhibition: reaction rate vs enzyme concentration
Sequence of AchE from S. frugiperda (A0A9R0CUI4 18-694): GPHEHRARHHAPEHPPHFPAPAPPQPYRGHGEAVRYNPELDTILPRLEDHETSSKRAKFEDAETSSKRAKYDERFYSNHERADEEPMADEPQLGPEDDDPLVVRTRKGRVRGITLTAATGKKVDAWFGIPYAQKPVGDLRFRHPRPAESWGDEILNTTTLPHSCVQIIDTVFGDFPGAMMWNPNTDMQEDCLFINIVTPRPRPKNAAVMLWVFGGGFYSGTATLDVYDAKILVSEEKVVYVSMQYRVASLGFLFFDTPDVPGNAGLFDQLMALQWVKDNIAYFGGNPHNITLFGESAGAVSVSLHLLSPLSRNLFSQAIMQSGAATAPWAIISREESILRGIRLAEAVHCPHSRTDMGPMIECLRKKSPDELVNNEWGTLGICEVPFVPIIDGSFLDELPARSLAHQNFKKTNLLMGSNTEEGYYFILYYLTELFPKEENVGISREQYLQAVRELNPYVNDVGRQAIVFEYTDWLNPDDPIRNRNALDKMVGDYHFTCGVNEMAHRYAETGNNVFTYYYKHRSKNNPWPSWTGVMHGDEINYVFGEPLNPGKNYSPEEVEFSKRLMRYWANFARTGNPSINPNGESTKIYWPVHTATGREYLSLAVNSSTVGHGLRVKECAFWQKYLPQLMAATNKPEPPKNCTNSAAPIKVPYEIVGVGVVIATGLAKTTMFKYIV
Protocol: Subsequently, 1.5 mM acetylcholine (ACh) (50 µL) and 0.3 mM DTNB (50 µL) were added, and the time was immediately recorded. The OD values were accurately measured after 60 seconds at 412 nm using a microplate reader, and the reaction rate (ΔA/min) was calculated based on the change in OD value per minute.
The OD values were accurately measured after 60 seconds at 412 nm using a microplate reader, and the reaction rate (ΔA/min) was calculated based on the change in OD value per minute. […] The inhibition constant (Ki) of the compound was calculated by plotting the Dixon plot.

[2] = tested on: 4th instar S. frugiperda larva; assay: Dietary toxicity of compounds, artificial feed film method; type: in vivo, Spodoptera frugiperda; conditions: for Insecticidal activity, dietary poisoning (in words): 200 µg/mL; for LC50: Spodoptera frugiperda, feed or water, Gastrotoxic activity (dietary toxicity), 72 hours, 4th instar larvae
Protocol: The dietary toxicity of the compounds against S. frugiperda was determined via the artificial feed film method ([Lu, 2022]). Take 1g of artificial feed and place it in a petri dish, then add 0.1 ml of the liquid medicine (acetone as the solvent and concentration of 200 μg/mL for all compounds) was added to form a uniform film on the surface of the feed. After allowing the feed to dry in a shaded area, one uniformly sized 4th instar S. frugiperda larva was introduced into each dish. Each treatment included 10 Petri dishes, and the experiment was repeated twice. Acetone was used as the solvent control, and a blank control was also used. Mortality was recorded at 24, 48, and 72 hours, and the corrected mortality rate was calculated.
as §1
The compound concentrations used were 50, 100, 200, 400, and 800 μg/mL. The remaining procedures were the same as those described in section 2.6.1. After 72 hours, the number of dead insects was recorded. The experimental data were processed using Microsoft Excel and SPSS 20.0 software, with the inhibition rates converted into corresponding probability values. A toxicity regression equation was derived, and the LC50 value was calculated.

[3] = tested on: Acetylcholinesterase (AchE); assay: AchE activity in living S. frugiperda after immersion treatment; type: in vivo, Spodoptera frugiperda; conditions: treatment at LC50 and double the LC50, immersion
Protocol: The compounds were prepared in solutions at the LC50 and double the LC50, and 4th-instar S. frugiperda larvae were treated using the immersion method. Ten larvae were treated per concentration, with five replicates, and acetone was used as the solvent control. The Acetylcholinesterase (AchE) activity was measured following the operating procedures of the AchE assay kit (Shenggong Biotech Co., Shanghai, China.).

O=C(/C=C/c1ccc(O)cc1)NCCc1ccc(O)cc1 [Compound 1, N-p-coumaroyl tyramine]
Insecticidal activity, contact toxicity (in words) [1]: good insecticidal activity | LC50 [1]: 93 µg/mL (≈ 328 µM) | Inhibition type on AchE (AchE from S. frugiperda): competitive inhibitors | Reversibility of AchE inhibition (AchE from S. frugiperda): reversible inhibitors | Insecticidal activity, dietary poisoning (in words) [2]: good insecticidal activity | LC50 [2]: 305 µg/mL (≈ 1080 µM) | AchE activity of the test insects [3]: significantly decreased

COc1cc(/C=C/C(=O)NCCc2ccc(O)cc2)ccc1O [Compound 2, N-trans-feruloyl tyramine]
Insecticidal activity, contact toxicity (in words) [1]: good insecticidal activity | LC50 [1]: 48 µg/mL (≈ 153 µM) | Inhibition type on AchE (AchE from S. frugiperda): competitive inhibitors | Reversibility of AchE inhibition (AchE from S. frugiperda): reversible inhibitors | Insecticidal activity, dietary poisoning (in words) [2]: good insecticidal activity | LC50 [2]: 89.9 µg/mL (≈ 287 µM) | AchE activity of the test insects [3]: significantly decreased
